The assay concerns the target Beta-3 Adrenergic Receptor (Homo sapiens (Human), UniProt P13945). The experiment in a line: HTRF cAMP antagonist assay (IC50 determination). The class given is cell-based. The conditions noted are these: CHO-K1 cells stably expressing recombinant receptor; antagonism of isoproterenol at EC90; cAMP readout. The procedure: HTRF cAMP assays were performed according to manufacturer's instructions (Cisbio, cAMP Dynamic 2 Assay Kit; #62AM4PEJ). CHO-K1 cells stably expressing recombinant receptor were harvested and suspended in warm PBS to make a 300,000 cells/mL stock. This cell suspension was dispensed into 384 well assay plates (PerkinElmer ProxiPlate #6008280) at 5 μL per well (1500 cells/well) along with a cAMP standard curve.
Compounds were dissolved and serially diluted (5-fold) in DMSO to generate a 10-point dose response stock. The stock was then diluted 100-fold in assay buffer (PBS containing 1 mM IBMX) before a volume of 2.5 μL was added to the cells (the final, top concentration of compound in the dose-response is typically 10 or 100 μM). After a brief incubation, 2.5 μL of isoproterenol stock, prepared at a concentration 4 times its EC90 at the receptor of interest, was added to the wells. The EC90 for isoproterenol, a beta-adrenergic agonist, was determined in separate experiments using standard methods to measure agonist potencies.
Following a 1-hour incubation at room temperature, 5 μL of cAMP-D2 Reagent diluted in Lysis Buffer was added to each well followed by 5 μL of Cryptate Reagent. Plates were further incubated at room temperature for 1 hour prior to reading. Time resolved fluorescence measurements were collected on a suitable, HTRF-capable plate reader.
Counts from the plate reader were fit to the cAMP standard curve on the assay plate in order to determine cAMP concentrations in each well, and these values were used to construct dose-response curves to obtain IC50 values.
On the technique in general: TR-FRET usually uses a lanthanide donor and a delayed reading to cut background.

The structures appear in SMILES notation.

Chain of Beta-3 Adrenergic Receptor (P13945 whole entry, species assumed): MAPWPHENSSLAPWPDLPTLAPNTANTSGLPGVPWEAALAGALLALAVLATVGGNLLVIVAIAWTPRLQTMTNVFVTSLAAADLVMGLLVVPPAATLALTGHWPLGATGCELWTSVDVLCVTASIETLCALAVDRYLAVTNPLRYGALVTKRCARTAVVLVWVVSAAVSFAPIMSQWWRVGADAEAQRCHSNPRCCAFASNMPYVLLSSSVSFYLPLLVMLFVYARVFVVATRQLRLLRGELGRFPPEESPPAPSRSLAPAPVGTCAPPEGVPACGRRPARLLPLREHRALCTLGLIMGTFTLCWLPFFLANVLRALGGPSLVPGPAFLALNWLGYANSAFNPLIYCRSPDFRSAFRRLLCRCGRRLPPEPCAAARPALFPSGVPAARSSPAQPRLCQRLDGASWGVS

Broadly, the IC50 is the midpoint of a concentration-inhibition curve. Consider `CS(=O)(=O)c1cccc(OC[C@@H](O)CNC2COC3(CCN(S(=O)(=O)c4ccc5ccccc5c4)CC3)C2)c1` (stereo partly drawn) [Compound 1, (2S)-1-(3-(methylsulfonyl)phenoxy)-3-(8-(naphthalen-2-ylsulfonyl)-1-oxa-8-azaspiro[4.5]decan-3-ylamino)propan-2-ol], for which the half-maximal inhibitory concentration (IC50) amounted to 4.42 nM.

Consider `CS(=O)(=O)c1cccc(OC[C@H](O)CNC2COC3(CCN(S(=O)(=O)c4ccc5ccccc5c4)CC3)C2)c1` (stereo partly drawn) [Compound 2, (2R)-1-(3-(methylsulfonyl)phenoxy)-3-(8-(naphthalen-2-ylsulfonyl)-1-oxa-8-azaspiro[4.5]decan-3-ylamino)propan-2-ol], for which the IC50 came to 44.8 nM.

For `CS(=O)(=O)c1cccc(OC[C@@H](O)CN[C@H]2COC3(CCN(S(=O)(=O)c4ccc5ccccc5c4)CC3)C2)c1` [Compound 3, (S)-1-(3-(methylsulfonyl)phenoxy)-3-((R)-8-(naphthalen-2-ylsulfonyl)-1-oxa-8-azaspiro[4.5]decan-3-ylamino)propan-2-ol], the IC50 was found to be 5.47 nM.

For `CS(=O)(=O)c1cccc(OC[C@@H](O)CN[C@@H]2COC3(CCN(S(=O)(=O)c4ccc5ccccc5c4)CC3)C2)c1` [Compound 4, (S)-1-(3-(methylsulfonyl)phenoxy)-3-((S)-8-(naphthalen-2-ylsulfonyl)-1-oxa-8-azaspiro[4.5]decan-3-ylamino)propan-2-ol], the IC50 amounted to 4.45 nM.

As for `O=S(=O)(CCO)c1cccc(OC[C@@H](O)CNC2COC3(CCN(S(=O)(=O)c4ccc5ccccc5c4)CC3)C2)c1` (stereo partly drawn) [Compound 5, (2S)-1-(3-(2-hydroxyethylsulfonyl)phenoxy)-3-(8-(naphthalen-2-ylsulfonyl)-1-oxa-8-azaspiro[4.5]decan-3-ylamino)propan-2-ol], the IC50 turned out to be 33.3 nM.

Take `CCCS(=O)(=O)c1cccc(OC[C@@H](O)CNC2COC3(CCN(S(=O)(=O)c4ccc5ccccc5c4)CC3)C2)c1` (stereo partly drawn) [Compound 6, (2S)-1-(8-(naphthalen-2-ylsulfonyl)-1-oxa-8-azaspiro[4.5]decan-3-ylamino)-3-(3-(propylsulfonyl)phenoxy)propan-2-ol]: the IC50 was 16.5 nM.

As for `O=S(=O)(CC1CC1)c1cccc(OC[C@@H](O)CNC2COC3(CCN(S(=O)(=O)c4ccc5ccccc5c4)CC3)C2)c1` (stereo partly drawn) [Compound 7, (2S)-1-(3-(cyclopropylmethylsulfonyl)phenoxy)-3-(8-(naphthalen-2-ylsulfonyl)-1-oxa-8-azaspiro[4.5]decan-3-ylamino)propan-2-ol], the IC50 came out at 34.2 nM.

In the case of `CC(C)S(=O)(=O)c1cccc(OC[C@@H](O)CNC2COC3(CCN(S(=O)(=O)c4ccc5ccccc5c4)CC3)C2)c1` (stereo partly drawn) [Compound 8, (2S)-1-(3-(isopropylsulfonyl)phenoxy)-3-(8-(naphthalen-2-ylsulfonyl)-1-oxa-8-azaspiro[4.5]decan-3-ylamino)propan-2-ol], the half-maximal inhibitory concentration (IC50) was found to be 12.1 nM.

Regarding `O=S(=O)(CCC(F)(F)F)c1cccc(OC[C@@H](O)CNC2COC3(CCN(S(=O)(=O)c4ccc5ccccc5c4)CC3)C2)c1` (stereo partly drawn) [Compound 9, (2S)-1-(8-(naphthalen-2-ylsulfonyl)-1-oxa-8-azaspiro[4.5]decan-3-ylamino)-3-(3-(3,3,3-trifluoropropylsulfonyl)phenoxy)propan-2-ol], the half-maximal inhibitory concentration (IC50) worked out at 24.2 nM.

Take `CC(C)CS(=O)(=O)c1cccc(OC[C@@H](O)CNC2COC3(CCN(S(=O)(=O)c4ccc5ccccc5c4)CC3)C2)c1` (stereo partly drawn) [Compound 10, (2S)-1-(3-(isobutylsulfonyl)phenoxy)-3-(8-(naphthalen-2-ylsulfonyl)-1-oxa-8-azaspiro[4.5]decan-3-ylamino)propan-2-ol]: the 50% inhibitory concentration (IC50) was found to be 25.1 nM.

For the compound `CC(C)CCS(=O)(=O)c1cccc(OC[C@@H](O)CNC2COC3(CCN(S(=O)(=O)c4ccc5ccccc5c4)CC3)C2)c1` (stereo partly drawn) [Compound 11, (2S)-1-(3-(isopentylsulfonyl)phenoxy)-3-(8-(naphthalen-2-ylsulfonyl)-1-oxa-8-azaspiro[4.5]decan-3-ylamino)propan-2-ol], the IC50 was found to be 35.5 nM.

As for `N#CCS(=O)(=O)c1cccc(OC[C@@H](O)CNC2COC3(CCN(S(=O)(=O)c4ccc5ccccc5c4)CC3)C2)c1` (stereo partly drawn) [Compound 12, 2-(3-((2S)-2-hydroxy-3-(8-(naphthalen-2-ylsulfonyl)-1-oxa-8-azaspiro[4.5]decan-3-ylamino)propoxy)phenylsulfonyl)acetonitrile], the half-maximal inhibitory concentration (IC50) stood at 130 nM.

As for `O=S(=O)(CC1CCC1)c1cccc(OC[C@@H](O)CNC2COC3(CCN(S(=O)(=O)c4ccc5ccccc5c4)CC3)C2)c1` (stereo partly drawn) [Compound 13, (2S)-1-(3-(cyclobutylmethylsulfonyl)phenoxy)-3-(8-(naphthalen-2-ylsulfonyl)-1-oxa-8-azaspiro[4.5]decan-3-ylamino)propan-2-ol], the concentration for half-maximal inhibition (IC50) is 97.8 nM.

Take `O=S(=O)(CCCC(F)(F)F)c1cccc(OC[C@@H](O)CNC2COC3(CCN(S(=O)(=O)c4ccc5ccccc5c4)CC3)C2)c1` (stereo partly drawn) [Compound 14, (2S)-1-(8-(naphthalen-2-ylsulfonyl)-1-oxa-8-azaspiro[4.5]decan-3-ylamino)-3-(3-(4,4,4-trifluorobutylsulfonyl)phenoxy)propan-2-ol]: the IC50 amounted to 56.7 nM.

As for `CCS(=O)(=O)c1cccc(OC[C@@H](O)CNC2COC3(CCN(S(=O)(=O)c4ccc5ccccc5c4)CC3)C2)c1` (stereo partly drawn) [Compound 15, (2S)-1-(3-(ethylsulfonyl)phenoxy)-3-(8-(naphthalen-2-ylsulfonyl)-1-oxa-8-azaspiro[4.5]decan-3-ylamino)propan-2-ol], the IC50 amounted to 5.7 nM.

Turning to `O=S(=O)(CC1CCCCC1)c1cccc(OC[C@@H](O)CNC2COC3(CCN(S(=O)(=O)c4ccc5ccccc5c4)CC3)C2)c1` (stereo partly drawn) [Compound 16, (2S)-1-(3-(cyclohexylmethylsulfonyl)phenoxy)-3-(8-(naphthalen-2-ylsulfonyl)-1-oxa-8-azaspiro[4.5]decan-3-ylamino)propan-2-ol], the IC50 turned out to be 133 nM.

Consider `O=S(=O)(CC1CC1(F)F)c1cccc(OC[C@@H](O)CNC2COC3(CCN(S(=O)(=O)c4ccc5ccccc5c4)CC3)C2)c1` (stereo partly drawn) [Compound 17, (2S)-1-(3-((2,2-difluorocyclopropyl)methylsulfonyl)phenoxy)-3-(8-(naphthalen-2-ylsulfonyl)-1-oxa-8-azaspiro[4.5]decan-3-ylamino)propan-2-ol], for which the IC50 is 38.8 nM.

`O=S(=O)(c1cccc(OC[C@@H](O)CNC2COC3(CCN(S(=O)(=O)c4ccc5ccccc5c4)CC3)C2)c1)C1CCC1` (stereo partly drawn) [Compound 18, (2S)-1-(3-(cyclobutylsulfonyl)phenoxy)-3-(8-(naphthalen-2-ylsulfonyl)-1-oxa-8-azaspiro[4.5]decan-3-ylamino)propan-2-ol]: the half-maximal inhibitory concentration (IC50) worked out at 48.9 nM.

As for `O=S(=O)(c1cccc(OC[C@@H](O)CNC2COC3(CCN(S(=O)(=O)c4ccc5ccccc5c4)CC3)C2)c1)C1CCCC1` (stereo partly drawn) [Compound 19, (2S)-1-(3-(cyclopentylsulfonyl)phenoxy)-3-(8-(naphthalen-2-ylsulfonyl)-1-oxa-8-azaspiro[4.5]decan-3-ylamino)propan-2-ol], the IC50 is 66.7 nM.

For `O=S(=O)(Cc1ccccc1)c1cccc(OC[C@@H](O)CNC2COC3(CCN(S(=O)(=O)c4ccc5ccccc5c4)CC3)C2)c1` (stereo partly drawn) [Compound 20, (2S)-1-(3-(benzylsulfonyl)phenoxy)-3-(8-(naphthalen-2-ylsulfonyl)-1-oxa-8-azaspiro[4.5]decan-3-ylamino)propan-2-ol], the IC50 was 76.2 nM.

As to `O=S(=O)(c1cccc(OC[C@@H](O)CNC2COC3(CCN(S(=O)(=O)c4ccc5ccccc5c4)CC3)C2)c1)C1CNC1` (stereo partly drawn) [Compound 21, (2S)-1-(3-(azetidin-3-ylsulfonyl)phenoxy)-3-(8-(naphthalen-2-ylsulfonyl)-1-oxa-8-azaspiro[4.5]decan-3-ylamino)propan-2-ol], the IC50 is 252 nM.

With `NCCS(=O)(=O)c1cccc(OC[C@@H](O)CNC2COC3(CCN(S(=O)(=O)c4ccc5ccccc5c4)CC3)C2)c1` (stereo partly drawn) [Compound 22, (2S)-1-(3-(2-aminoethylsulfonyl)phenoxy)-3-(8-(naphthalen-2-ylsulfonyl)-1-oxa-8-azaspiro[4.5]decan-3-ylamino)propan-2-ol], the IC50 was 302 nM.

Regarding `CS(=O)(=O)c1cccc(OC[C@H](O)CN[C@H]2COC3(CCN(S(=O)(=O)c4ccc5ccccc5c4)CC3)C2)c1` [Compound 23, (R)-1-(3-(methylsulfonyl)phenoxy)-3-((R)-8-(naphthalen-2-ylsulfonyl)-1-oxa-8-azaspiro[4.5]decan-3-ylamino)propan-2-ol], the IC50 was 242 nM.

For the compound `O=S(=O)(c1cccc(OC[C@@H](O)CNC2COC3(CCN(S(=O)(=O)c4ccc5ccccc5c4)CC3)C2)c1)C1COC1` (stereo partly drawn) [Compound 24, (2S)-1-(8-(naphthalen-2-ylsulfonyl)-1-oxa-8-azaspiro[4.5]decan-3-ylamino)-3-(3-(oxetan-3-ylsulfonyl)phenoxy)propan-2-ol], the IC50 is 23.6 nM.

On to `CCC(C)S(=O)(=O)c1cccc(OC[C@@H](O)CNC2COC3(CCN(S(=O)(=O)c4ccc5ccccc5c4)CC3)C2)c1` (stereo partly drawn) [Compound 25, (2S)-1-(3-(sec-butylsulfonyl)phenoxy)-3-(8-(naphthalen-2-ylsulfonyl)-1-oxa-8-azaspiro[4.5]decan-3-ylamino)propan-2-ol], for which the IC50 is 54.6 nM.

(Values after patent publication US10927123B2, “Modulators of the beta-3 adrenergic receptor useful for the treatment or prevention of disorders related thereto” (Arena Pharmaceuticals, Inc., priority 2016, dated 2021).)
